Assay results reported in patent US20230218631A1 (priority 2020, published 2023).

Assays:
Assay type in all cases: in vivo
C57BL/6J mice [1] = experiment: Two-bottle choice ethanol drinking (non-stressed) under systemic UNC0642
Protocol: Animal Care. Adult male C57BL/6J mice (Jackson Laboratory, Bar Harbor, Me.) were singly housed in a climate-controlled environment (21° C.) on a 12h light-dark cycle. Animals were habituated to the housing environment for at least 7 days prior to use in experiments, and had food and water ad libitum. All drinking and behavioral experiments were performed during the dark cycle as described below, and were approved by the MUSC Institutional Animal Care and Use Committee (IACUC) in facilities accredited by the American Association for the Accreditation of Laboratory Animal Care (AAALAC). All procedures were conducted in accordance with the guidelines established by the National Institutes of Health and the National Research Council.
(§1) Systemic G9A inhibitor administration and stress-potentiated drinking. […] Mice were then divided into 2 even groups and given chronic injections of either vehicle or 4 mg/kg UNC0642 for 2 weeks similar to a previous in vivo study in mice (Wang et al., 2018). Next, following 3 days of withdrawal, control mice were injected with 5 mg/kg U50,488 only and chronic treated mice were given both U50,488 and UNC0642 in the same injection 30 minutes before the session. This test was repeated again the following day and then only vehicle injections were given to all mice for the next 3 days before two-bottle choice testing. Finally, after another 3 day withdrawal, an acute injection of UNC0642+U50,488 was given to the naïve control group while U50,488 alone was administered to the chronic UNC0642 group 30 minutes before drinking.
Systemic EHMT2/G9A Inhibition Suppresses Stress-induced Ethanol Drinking Since reducing EHMT2/G9A levels in the NAc blocked stress-regulated ethanol drinking in mice, we tested whether systemic delivery of a specific EHMT2/G9A methyltransferase inhibitor, UNC0642 (Liu et al, 2013), could block stress-potentiated ethanol drinking. Wild-type mice were allowed to drink ethanol for 2 weeks prior to repeated, daily injections of UNC0642 (4 mg/kg; i.p.) given 30 minutes prior to the 2-bottle choice sessions (FIG. 5A). […]

mice = experiment: Sucrose pellet self-administration, extinction and cue-induced reinstatement
Protocol: Mice were first injected with UNC0642 (2 mg/kg, i.p) or vehicle-alone once daily for 10 days. Thirty minutes following the 10th dose, they began the first 2-hour sucrose self-administration session. The UNC0642 and vehicle injections occurred 30 minutes before the start of each sucrose self-administration, extinction, and reinstatement session. All self-administration experiments occurred in standard operant chambers with two nose-poke detectors, a house light, and a cue light and tone generator (Med Associates, Fairfield, Vt.). All sucrose-paired nose-pokes, including those during the timeout, were recorded and are reported as “paired nose pokes”. No fasting occurred during any stage of the experiment. During the 2-hour sessions, mice were trained to nose-poke in the paired side on a fixed-ratio 1 (FR1) schedule with 15-second timeout period after delivery of a single sucrose pellet. Concurrent with the pellet delivery, a cue tone and cue light (which is located immediately above the paired nose-poke port) are activated. All mice had ten self-administration sessions. […] Finally, we examined the number of nose-pokes on the paired side during timeout periods. Similar to the paired nose-poke data above, there was a slight effect on the interaction between UNC0642 treatment and sex. […] Overall, UNC0642 had no effect on sucrose-taking behavior as all groups increased their responding for sucrose pellets over time, and they learned and remembered the relationship between the reinforced (sucrose-paired) and the non-reinforced (unpaired) ports.
Sucrose-seeking behaviors were next tested in these same mice. Following a 7-day period in the home cage with ad libitum food and water, all mice began extinction training for 6 consecutive days (a model of context-associated sucrose-seeking behavior). […] Finally, light/tone cue-induced reinstatement behavior (a model of discreet cue-induced sucrose-seeking behavior) was tested one day after the 6th extinction session in a single 2-hour session. Mice were allowed to nose-poke for light and tone cues without receiving pellets. […] We also found UNC0642 had no effect on UNC0642 on the number of unpaired nose pokes during cue induced reinstatement of sucrose pellet self-administration (FIG. 9J; Three-Way ANOVA, Day: F1,26=6.739, p=0.0153, Sex: F1,26=6.739, p=0.0153, no other significant effects) and UNC0642 had no effect on the discrimination ratio between paired and unpaired nose pokes during cue-induced reinstatement of sucrose pellet self-administration (FIG. 9K; Three-Way ANOVA, Sex: F1,26=5.880, p=0.0226, no other significant effects).

C57BL/6J mice [2] = experiment: U50,488 (kappa agonist) stress-potentiated two-bottle choice ethanol drinking under systemic UNC0642
Protocol: as §1
Systemic EHMT2/G9A Inhibition Suppresses Stress-induced Ethanol Drinking Since reducing EHMT2/G9A levels in the NAc blocked stress-regulated ethanol drinking in mice, we tested whether systemic delivery of a specific EHMT2/G9A methyltransferase inhibitor, UNC0642 (Liu et al, 2013), could block stress-potentiated ethanol drinking. Wild-type mice were allowed to drink ethanol for 2 weeks prior to repeated, daily injections of UNC0642 (4 mg/kg; i.p.) given 30 minutes prior to the 2-bottle choice sessions (FIG. 5A). […] Mice were then allowed to continue ethanol drinking for one additional week before the UNC0642-naïve mice (former vehicle control group) were injected with either vehicle or UNC0642 (4 mg/kg; i.p.) and tested for U50,488-potentiated ethanol drinking.
Since UNC0642 (4 mg/kg, i.p.) blocked stress-regulated ethanol drinking in mice as shown above, it was next tested whether this effect was dose-dependent and if it worked similarly in both sexes. There are reported sex/gender differences in the risk of developing several neuropsychiatric conditions, including AUD, SUD, and mood disorders, and while there was no a priori expectation of a sex-difference in UNC0642 efficacy in reducing stress-potentiated alcohol drinking, we wished to confirm that the treatment would be effective in both males and females. Similar to the studies described hereinabove (FIG. 5A), wild-type mice (both male and female) were allowed to drink ethanol for 2 weeks prior to repeated, daily injections of UNC0642 (4 mg/kg; 2 mg/kg, 1 mg/kg, or 0 mg/kg (vehicle), i.p.) given 30 minutes prior to the 2-bottle choice sessions. […]

COc1cc2c(NC3CCN(C(C)C)CC3)nc(N3CCC(F)(F)CC3)nc2cc1OCCCN1CCCC1 [UNC0642, 2-(4,4-Difluoropiperidin-1-yl)-6-methoxy-N-[1-(propan-2-yl)piperidin-4-yl]-7-[3-(pyrrolidin-1-yl)propoxy]quinazolin-4-amine]
ethanol drinking during the first week of daily UNC0642 injections (week 3) (C57BL/6J mice [1]; 4 mg/kg i.p. daily, 30 min before 2-bottle choice session, vs vehicle, FIG. 5B): significant reduction | ethanol intake in the second week of daily drug treatments (week 4) (C57BL/6J mice [1]; 4 mg/kg i.p. daily, vs vehicle control, FIG. 5B): no difference | baseline two-bottle choice alcohol drinking during daily UNC0642 injections (C57BL/6J mice [1]; 1, 2 or 4 mg/kg i.p. daily, male and female mice, weeks 3-5, FIG. 7A): no effect | number of sucrose pellets earned during sucrose pellet self-administration (mice; 2 mg/kg i.p. once daily, 30 min before session, FR1, FIG. 9A): no effect | number of paired nose pokes during extinction learning following sucrose pellet self-administration (mice; 2 mg/kg i.p., 6 extinction days, FIG. 9F): no effect | number of unpaired nose pokes during sucrose pellet self-administration (mice; 2 mg/kg i.p., FIG. 9C): no effect | discrimination ratio between paired and unpaired nose pokes during sucrose pellet self-administration (mice; 2 mg/kg i.p., FIG. 9D): no effect | unpaired nose-pokes during extinction learning following sucrose pellet self-administration (mice; 2 mg/kg i.p., FIG. 9G): no effect | discrimination ratio between paired and unpaired nose pokes during extinction learning (mice; 2 mg/kg i.p., FIG. 9H): no effect | number of paired nose pokes during cue induced reinstatement of sucrose pellet self-administration (mice; 2 mg/kg i.p., FIG. 9I): no effect | number of unpaired nose pokes during cue induced reinstatement of sucrose pellet self-administration (mice; 2 mg/kg i.p., FIG. 9J): no effect | discrimination ratio between paired and unpaired nose pokes during cue-induced reinstatement (mice; 2 mg/kg i.p., FIG. 9K): no effect | paired nose-pokes during self-administration, female mice (mice; 2 mg/kg i.p., female mice in UNC0642 group, Day X Treatment interaction, FIG. 9B): slight increase | timeout responding, female mice (mice; 2 mg/kg i.p., female mice in UNC0642 group, FIG. 9E): slightly higher | number of paired nose pokes during sucrose pellet self-administration (mice; 2 mg/kg i.p., overall, FIG. 9B): no overall effect | number of timeout responses on the paired nose port during sucrose pellet self-administration (mice; 2 mg/kg i.p., overall, FIG. 9E): no overall effect | U50,488-potentiated ethanol drinking, chronic UNC0642 2 mg/kg (C57BL/6J mice [2]; 2 mg/kg i.p. daily, male and female mice, both sexes similarly, FIG. 7B): suppressed | U50,488-potentiated ethanol drinking, chronic UNC0642 4 mg/kg (C57BL/6J mice [2]; 4 mg/kg i.p. daily, male and female mice, both sexes similarly, FIG. 7B): suppressed | U50,488-potentiated ethanol drinking, chronic UNC0642 treatment (C57BL/6J mice [2]; chronic 4 mg/kg i.p. for 2 weeks, U50,488 5 mg/kg i.p. 30 min before session, FIG. 5C): suppressed | U50,488-potentiated ethanol drinking, single (acute) injection of UNC0642 (C57BL/6J mice [2]; single 4 mg/kg i.p. with U50,488 5 mg/kg in UNC0642-naive mice, FIG. 5D): failed to influence stress-potentiated drinking
